Test results from patent US20040191907A1, “Cultured cells of Ficus stipulata Thunb. (=Ficus thunbergii) and a method for culturing tissues of the Ficus stipulata Thunb. by using said cultured cells” (HIROSHIMA UNIVERSITY, priority 2001, published 2004).

Legend:
[1] = tested on: cut pieces of the leaf, shoot and root tissues of the Ficus stipulata Thunb.; test: Experiment 1: polyblast formation from cut pieces cultured on medium containing thidiazuron and/or benzyladenine; format: cell-based; conditions: for Number of cut piece* (cut pieces with polyblast formation × 100/cut piece) / Number of shoots/cut piece: one month after the culturing; for induction of the Ficus stipulata Thunb. (polyblast formation / redifferentiation): culture medium containing at least one of TDZ and/or BA
Procedure: A culture medium in which the MS culture medium or the WP culture medium was used as a fundamental culture medium and 1% sucrose and 0.3% Gellan Gum were added as the carbonaceuous source and a gelling agent, respectively, was used.
Cut pieces, 0.5˜1 mm long, were prepared from leaf, shoot and root tissues of the Ficus stipulata Thunb. asepatically cultured. The cut pieces of the leaf, shoot and root tissues of the Ficus stipulata Thunb. thus prepared were implanted on a culture medium containing thidiazuron and/or benzyladenine as plant hormones, thereby culturing the Ficus stipulata Thunb. One month after the culturing, it was observed that polyblasts were formed from the cut pieces. The polyblasts were cut out, their cut edge were coated with iondoleacetic acid, and the polyblasts were implanted into the above culture medium or a culture containing pearlite and vermiculite, and allowed to take roots.

[2] = tested on: cut pieces from stem apexes, nodes and stem portions of Ficus stipulata Thunb.; test: Experiment 2: redifferentiation condition, polyblasts and buds formed at stem apex cut pieces; format: cell-based; conditions: for Number of cut pieces* in which polyflasts were formed at a stem apex: of 4 cut pieces; for Number of cut pieces* in which polyflasts were formed at a stem apex / Number of buds formed: six weeks; for Number of buds formed: stem apex; for redifferential state: used as the plant hormone, bright condition, WP culture medium
Procedure: A redifferentiation condition most suitable for the introduction of a gene into the Ficus stipulata Thunb. was examined, and the gene was tried introduced thereinto.
First, the redifferentiation condition was examined. As the Ficus stipulata Thunb., one sterilized and aseptically subcultured was used. The Ficus stipulata Thunb. aseptically grown (4 to 6 weeks after implanting the cutting) used, and cut pieces were prepared from stem apexes, nodes and stem portions, and implanted in the culture medium. Six weeks later, the number and the shape of buds were observed. In culturing the Ficus stipulata Thunb., 1/3 of a block of Florialite (a mixture of vermiculite and cellulose fibers) was added into a test tube (30×200 mm), to which 15 ml of the MS culture medium or the WP culture medium was added. The test tube was closed with a polypropylene cap, which was placed in an autoclave.
A braird appearing in the Ficus stipulata Thunb. having been aseptically subcultured in an Agripot (a plastic container) was cut by about 2 to 3 cm, its cut section was immersed into a 1 g/l solution (1 g/l) of 4-(3-indolyl)butyric acid, and the cut piece was implanted in the test piece thus prepared, and subjected to 4 to 8 week culturing.
The culturing conditions were: atmospheric temperature 25° C., illumination intensity 30˜40 μEm^−2s^−1, a bright condition of 30˜40μEm^−2s^−1 for 15 hours and a dark condition of 1˜2μEm^−2s^−1 for 9 hours.
The MS culture medium or the WP culture medium was used as a fundamental culture medium. Sucrose 2% was added into each of the culture media, thereby adjusting the pH values of the MS culture medium and the WP culture medium to 5.6 and 5.2, respectively. Further, Gellan Gum 3% was added to the culture medium, and it was autoclaved at 120° C. for 15 minutes, thereby preparing a solid culture medium. As plant hormones, […] (NAA), benzylaminopurine (BA), thidiazuron(TDZ), abscisic acid (ABA) and silver nitrate (AgNO3) were used.

SMILES: O=C(Nc1ccccc1)Nc1cnns1 [TDZ, thidiazuron]
- Number of cut piece* (cut pieces with polyblast formation × 100/cut piece) ([1]; BA 0 nM, TDZ 1 nM): 100
- Number of shoots/cut piece ([1]; BA 0 nM, TDZ 1 nM): 1.5 ± 1.0
- Number of cut piece* (cut pieces with polyblast formation × 100/cut piece) ([1]; BA 0 nM, TDZ 1 × 10^2 nM): 100
- Number of shoots/cut piece ([1]; BA 0 nM, TDZ 1 × 10^2 nM): 2.5 ± 0.6
- Number of cut piece* (cut pieces with polyblast formation × 100/cut piece) ([1]; BA 0 nM, TDZ 1 × 10^4 nM): 100
- Number of shoots/cut piece ([1]; BA 0 nM, TDZ 1 × 10^4 nM): 1.5 ± 1.0
- induction of the Ficus stipulata Thunb. (polyblast formation / redifferentiation) [1]: could be induced at a high probability
- Number of cut pieces* in which polyflasts were formed at a stem apex ([2]; BA 0 nM, TDZ 1 nM): 4
- Number of buds formed ([2]; BA 0 nM, TDZ 1 nM): 1.5 ± 1.0
- Number of cut pieces* in which polyflasts were formed at a stem apex ([2]; BA 0 nM, TDZ 10^2 nM): 4
- Number of buds formed ([2]; BA 0 nM, TDZ 10^2 nM): 2.5 ± 0.6
- Number of cut pieces* in which polyflasts were formed at a stem apex ([2]; BA 0 nM, TDZ 10^4 nM): 4
- Number of buds formed ([2]; BA 0 nM, TDZ 10^4 nM): 1.5 ± 1.0
- redifferential state [2]: good redifferential state

SMILES: c1ccc(CNc2ncnc3nc[nH]c23)cc1 [BA, benzyladenine]
- Number of cut piece* (cut pieces with polyblast formation × 100/cut piece) ([1]; BA 9 nM, TDZ 0 nM): 50
- Number of shoots/cut piece ([1]; BA 9 nM, TDZ 0 nM): 1.8 ± 2.4
- Number of cut piece* (cut pieces with polyblast formation × 100/cut piece) ([1]; BA 22 nM, TDZ 0 nM): 100
- Number of shoots/cut piece ([1]; BA 22 nM, TDZ 0 nM): 3.5 ± 0.6
- Number of cut piece* (cut pieces with polyblast formation × 100/cut piece) ([1]; BA 36 nM, TDZ 0 nM): 100
- Number of shoots/cut piece ([1]; BA 36 nM, TDZ 0 nM): 2.5 ± 1.0
- Number of cut piece* (cut pieces with polyblast formation × 100/cut piece) ([1]; BA 44 nM, TDZ 0 nM): 100
- Number of shoots/cut piece ([1]; BA 44 nM, TDZ 0 nM): 3.8 ± 0.5
- induction of the Ficus stipulata Thunb. (polyblast formation / redifferentiation) [1]: could be induced at a high probability
- Number of cut pieces* in which polyflasts were formed at a stem apex ([2]; BA 8.9 nM, TDZ 0 nM): 2
- Number of buds formed ([2]; BA 8.9 nM, TDZ 0 nM): 1.8 ± 2.4
- Number of cut pieces* in which polyflasts were formed at a stem apex ([2]; BA 22.2 nM, TDZ 0 nM): 4
- Number of buds formed ([2]; BA 22.2 nM, TDZ 0 nM): 3.5 ± 0.6
- Number of cut pieces* in which polyflasts were formed at a stem apex ([2]; BA 35.5 nM, TDZ 0 nM): 4
- Number of buds formed ([2]; BA 35.5 nM, TDZ 0 nM): 2.5 ± 1.0
- Number of cut pieces* in which polyflasts were formed at a stem apex ([2]; BA 44.4 nM, TDZ 0 nM): 4
- Number of buds formed ([2]; BA 44.4 nM, TDZ 0 nM): 3.8 ± 0.5
- redifferential state [2]: good redifferential state
